{"source": "patent US20040058976A1", "about": "“Ophthalmic compositions for treating ocular hypertension” (priority 2003, published 2004)", "system": "IOP in Dutch Belted Rabbits", "assay": "Intraocular pressure (IOP) measurements in conscious Dutch Belted rabbits after topical instillation", "assay_type": "in vivo, rabbit", "conditions": "for 030 min (Δmm Hg) Treated Mean change in IOP / 60 min (Δmm Hg) Treated Mean change in IOP / 120 min (Δmm Hg) Treated Mean change in IOP / 180 min (Δmm Hg) Treated Mean change in IOP / 240 min (Δmm Hg) Treated Mean change in IOP / 30 min (Δ mm Hg) Treated Mean change in IOP: change from Time 0, n = 24", "protocol": "Intraocular pressure measurements (IOP) were performed in conscious adult, pigmented Dutch Belted rabbits (2-4 kg). The animals were allowed free access to standard laboratory diet and tap water, and were housed on a 12 hour light/dark cycle. Seven day rest or washout periods were allowed between assessment of the effects of topically administered treatments on IOP. In order to measure IOP, rabbits were placed in commercially available restraint boxes. Rabbits were conditioned to the restraint boxes on at least two occasions for a period of time ranging up to 6 hours before their first study. On the morning of each experiment, rabbits were placed in restraint boxes for a period of one hour before the first measurement of IOP. IOP was recorded using a pneumatic tonometer (Alcon Applanation Pneumatonograph). Eyelids were gently separated manually and the fingers of the operator were held far enough from the eye to avoid any direct pressure on the eye and surrounding tissues. The membrane of the tonometer was placed on the central part of the cornea. Each measure of IOP lasted 3-5 seconds during which time the animal was completely relaxed. In general, two measures for each eye was sufficient, the first measure being frequently discarded. The tonometer tracing represents the oscillations which correspond to ocular pulsations; the average value of the oscillations corresponded to the level of IOP in mm Hg.\nThe initial measurement of control IOP was done on a number of rabbits, and 12 rabbits whose control IOP were between 17-25 mm Hg (values of IOP considered to be normal) were selected for study. In each study, the rabbits were separated into two equal subgroups of 6 rabbits each with essentially equivalent control IOPs. Each study consisted of the topical administration of active test substance to one subgroup of 6 rabbits (12 eyes) and vehicle to one subgroup of 6 rabbits (12 eyes); total number of eyes tested per study being 24. In each study, one drop (volume of 50 ul) of active test substance per vehicle was instilled by means of a Hamilton syringe into both eyes of each rabbit at time ) (To). IOPs were re-measured at 30 min, 1 hour, 2 hours, 3 hours and 4 hours after instillation. Results were expressed as mean+/−SD of changes in IOP (mm Hg) from the basal To levels measured just prior to the instillation of active test agent or vehicle. The significance of the data was determined as the difference from the To value using Dunnett's t-test, as well as use of an unpaired Student's t-test for comparisons of changes in IOP between test substance and vehicle at matched time points.\nVehicles consisted of 0.5% […] peanut oil. Formulation of test agents in peanut oil was performed as follows: peanut oil formulations were prepared by dissolving 0.5%, 0.2%, 0.1%, 0.05%, 0.025% or 0.01% (wt./wt) of the test compound in peanut oil. Sonnication was used to obtain complete dissolution of the compound.", "key": {"[1]": {"conditions": "Table 5, 0.1% in peanut oil, topical"}, "[2]": {"conditions": "Table 2, 0.1% in peanut oil, topical"}, "[3]": {"conditions": "Table 3, 0.1% in peanut oil, topical"}}, "data": [{"compound": "CC(C)(C)NC[C@H](O)COc1nsnc1N1CCOCC1", "note": "[Timolol Free Base, timolol]", "values": [{"measurement": "effect on IOP (in words)", "setting": "0.5% (free base equivalent) formulated in peanut oil", "result": "significant IOP lowering"}, {"measurement": "030 min (Δmm Hg) Treated Mean change in IOP", "setting": "0.5% in peanut oil, topical 50 ul both eyes, 30 min after instillation", "result": "−2.63", "unit": "mm Hg"}, {"measurement": "60 min (Δmm Hg) Treated Mean change in IOP", "setting": "0.5% in peanut oil, topical", "result": "−3.46", "unit": "mm Hg"}, {"measurement": "120 min (Δmm Hg) Treated Mean change in IOP", "setting": "0.5% in peanut oil, topical", "result": "−3.96", "unit": "mm Hg"}, {"measurement": "180 min (Δmm Hg) Treated Mean change in IOP", "setting": "0.5% in peanut oil, topical", "result": "−4.21", "unit": "mm Hg"}, {"measurement": "240 min (Δmm Hg) Treated Mean change in IOP", "setting": "0.5% in peanut oil, topical", "result": "−2.04", "unit": "mm Hg"}]}, {"compound": "COc1ccc2c(c1)c(CC(=O)N(C(=O)NC1CCCCC1)C1CCCCC1)c(C)n2C(=O)c1ccc(Cl)cc1", "note": "[Compound 1]", "values": [{"measurement": "effect on IOP (in words)", "setting": "0.2% formulated in peanut oil", "result": "significant IOP lowering"}, {"measurement": "030 min (Δmm Hg) Treated Mean change in IOP", "setting": "0.2% in peanut oil, topical, 30 min", "result": "−2.0", "unit": "mm Hg"}, {"measurement": "60 min (Δmm Hg) Treated Mean change in IOP", "setting": "0.2% in peanut oil, topical", "result": "−2.58", "unit": "mm Hg"}, {"measurement": "120 min (Δmm Hg) Treated Mean change in IOP", "setting": "0.2% in peanut oil, topical", "result": "−2.96", "unit": "mm Hg"}, {"measurement": "180 min (Δmm Hg) Treated Mean change in IOP", "setting": "0.2% in peanut oil, topical", "result": "−2.42", "unit": "mm Hg"}, {"measurement": "240 min (Δmm Hg) Treated Mean change in IOP", "setting": "0.2% in peanut oil, topical", "result": "−1.58", "unit": "mm Hg"}]}, {"compound": "Afletrem", "values": [{"measurement": "030 min (Δmm Hg) Treated Mean change in IOP", "setting": "Table 5, 0.1% in peanut oil, topical, 30 min", "result": "−1.54", "unit": "mm Hg"}, {"measurement": "60 min (Δmm Hg) Treated Mean change in IOP", "setting": "[1]", "result": "−2.04", "unit": "mm Hg"}, {"measurement": "120 min (Δmm Hg) Treated Mean change in IOP", "setting": "[1]", "result": "−2.54", "unit": "mm Hg"}, {"measurement": "180 min (Δmm Hg) Treated Mean change in IOP", "setting": "[1]", "result": "−2.13", "unit": "mm Hg"}, {"measurement": "240 min (Δmm Hg) Treated Mean change in IOP", "setting": "[1]", "result": "−1.42", "unit": "mm Hg"}]}, {"compound": "CC(C)(O)[C@H]1O[C@H]2CC[C@@]3(C)[C@@](O)(CC[C@H]4Cc5c([nH]c6ccccc56)[C@@]43C)C2=CC1=O", "note": "[Paxilline]", "values": [{"measurement": "30 min (Δ mm Hg) Treated Mean change in IOP", "setting": "Table 2, 0.1% in peanut oil, topical, 30 min", "result": "−0.79", "unit": "mm Hg"}, {"measurement": "60 min (Δmm Hg) Treated Mean change in IOP", "setting": "[2]", "result": "−2.67", "unit": "mm Hg"}, {"measurement": "120 min (Δmm Hg) Treated Mean change in IOP", "setting": "[2]", "result": "−2.67", "unit": "mm Hg"}, {"measurement": "180 min (Δmm Hg) Treated Mean change in IOP", "setting": "[2]", "result": "−1.71", "unit": "mm Hg"}, {"measurement": "240 min (Δmm Hg) Treated Mean change in IOP", "setting": "[2]", "result": "−1.38", "unit": "mm Hg"}]}, {"compound": "C=C(C)[C@H]1O[C@H]2CC[C@@]3(C)[C@@](O)(CC[C@H]4[C@@H]5OC(C)(C)[C@H]6C[C@@H]7C(=C)Cc8c(Cl)cc9[nH]c(c5c9c8[C@@]76O)[C@@]43C)[C@@]23O[C@H]3[C@H]1O", "note": "[Penitrem A]", "values": [{"measurement": "effect on IOP (in words)", "setting": "0.1% formulated in peanut oil", "result": "significant IOP lowering"}, {"measurement": "30 min (Δ mm Hg) Treated Mean change in IOP", "setting": "Table 3, 0.1% in peanut oil, topical, 30 min", "result": "−1.33", "unit": "mm Hg"}, {"measurement": "60 min (Δmm Hg) Treated Mean change in IOP", "setting": "[3]", "result": "−2.08", "unit": "mm Hg"}, {"measurement": "120 min (Δmm Hg) Treated Mean change in IOP", "setting": "[3]", "result": "−3.91", "unit": "mm Hg"}, {"measurement": "180 min (Δmm Hg) Treated Mean change in IOP", "setting": "[3]", "result": "−2.96", "unit": "mm Hg"}, {"measurement": "240 min (Δmm Hg) Treated Mean change in IOP", "setting": "[3]", "result": "−2.46", "unit": "mm Hg"}]}]}
